Experimental data as given in patent US20230014445A1, “ALLOSTERIC CHROMENONE INHIBITORS OF PHOSPHOINOSITIDE 3-KINASE (PI3K) FOR THE TREATMENT OF DISEASE” (Petra Pharma Corporation, priority 2021, published 2023).

Assays:
[1] = biological target: T1, human full length PIK3KA H1047R mutant (p110α/p85α complex) (Homo sapiens, UniProt P42336, H1047R); test: PI3K-Alpha Kinase (PIK3CA) biochemical activity, H1047R mutant (ADP-Glo); details: Soy PI lipid substrate, 20 uM ATP
T1 construct: Recombinant, catalytically active human full length PIK3KA Wild-type and H1047R mutant were purchased; 6xHis (N); purchased EMD Millipore Sigma 14-792M
T1 sequence (P42336 whole entry H1047R): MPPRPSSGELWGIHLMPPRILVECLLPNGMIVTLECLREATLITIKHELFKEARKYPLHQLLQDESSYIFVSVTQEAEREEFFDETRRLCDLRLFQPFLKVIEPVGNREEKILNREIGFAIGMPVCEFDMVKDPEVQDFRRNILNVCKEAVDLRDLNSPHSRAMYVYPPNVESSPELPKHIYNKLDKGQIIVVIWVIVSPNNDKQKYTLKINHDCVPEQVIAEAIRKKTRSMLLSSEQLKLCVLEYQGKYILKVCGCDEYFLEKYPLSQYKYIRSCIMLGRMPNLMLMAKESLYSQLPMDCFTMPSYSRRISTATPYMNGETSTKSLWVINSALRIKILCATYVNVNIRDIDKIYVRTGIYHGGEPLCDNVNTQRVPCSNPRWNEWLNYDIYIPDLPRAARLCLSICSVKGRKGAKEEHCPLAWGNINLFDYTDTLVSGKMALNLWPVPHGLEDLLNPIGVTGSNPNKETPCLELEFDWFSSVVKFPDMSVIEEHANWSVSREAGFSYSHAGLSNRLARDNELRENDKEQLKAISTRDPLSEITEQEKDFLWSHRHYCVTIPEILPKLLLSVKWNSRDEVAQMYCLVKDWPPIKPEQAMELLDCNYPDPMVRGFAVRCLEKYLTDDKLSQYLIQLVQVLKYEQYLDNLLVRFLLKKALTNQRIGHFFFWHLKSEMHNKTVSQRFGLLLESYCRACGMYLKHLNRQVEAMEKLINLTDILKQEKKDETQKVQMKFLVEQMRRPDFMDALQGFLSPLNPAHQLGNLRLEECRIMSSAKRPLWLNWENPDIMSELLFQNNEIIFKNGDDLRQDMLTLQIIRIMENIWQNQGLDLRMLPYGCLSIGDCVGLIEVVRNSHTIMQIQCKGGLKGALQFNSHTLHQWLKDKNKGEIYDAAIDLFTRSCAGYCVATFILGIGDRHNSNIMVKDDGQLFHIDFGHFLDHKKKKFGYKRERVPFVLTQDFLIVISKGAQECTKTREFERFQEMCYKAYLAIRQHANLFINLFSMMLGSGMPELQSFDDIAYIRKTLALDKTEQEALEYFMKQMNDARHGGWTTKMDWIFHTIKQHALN
T1 sequence (P27986 whole entry partner): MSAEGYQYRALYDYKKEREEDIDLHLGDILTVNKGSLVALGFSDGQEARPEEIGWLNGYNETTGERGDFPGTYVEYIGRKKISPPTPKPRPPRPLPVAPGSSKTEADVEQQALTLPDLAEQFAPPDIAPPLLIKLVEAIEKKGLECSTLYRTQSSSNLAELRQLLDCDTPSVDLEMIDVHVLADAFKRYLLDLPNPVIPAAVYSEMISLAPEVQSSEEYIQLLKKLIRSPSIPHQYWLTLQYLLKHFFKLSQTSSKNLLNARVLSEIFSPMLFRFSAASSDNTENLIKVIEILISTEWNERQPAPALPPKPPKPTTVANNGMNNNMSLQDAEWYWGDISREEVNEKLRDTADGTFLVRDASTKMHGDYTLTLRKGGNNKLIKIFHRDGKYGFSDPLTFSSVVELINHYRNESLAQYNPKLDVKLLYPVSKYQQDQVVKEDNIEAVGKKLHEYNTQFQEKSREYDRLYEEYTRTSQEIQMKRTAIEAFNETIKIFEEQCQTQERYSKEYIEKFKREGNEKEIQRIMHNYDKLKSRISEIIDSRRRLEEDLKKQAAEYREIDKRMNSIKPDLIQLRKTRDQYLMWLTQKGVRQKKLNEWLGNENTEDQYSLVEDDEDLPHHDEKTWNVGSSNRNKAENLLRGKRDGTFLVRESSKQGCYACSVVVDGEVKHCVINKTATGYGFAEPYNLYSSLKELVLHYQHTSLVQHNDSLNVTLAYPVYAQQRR
Description: (§1) PI3K-Alpha Kinase (PIK3CA) Activity, Wild-Type and H1047R Mutant and Determining IC50 Values for Inhibitors
(§2) Recombinant, catalytically active human full length PIK3KA Wild-type and H1047R mutant were purchased as 1:1 complex of N-terminal 6×his tagged p110α (catalytic) and untagged p85α, (regulatory subunit) from EMD Millipore Sigma (cat. no. 14-602M and 14-792M, respectively). PIP2diC8 (Avanti Polar Lipids Inc., cat. no. 850185) or Soy PI (Avanti Polar Lipids Inc., cat. No. 840044P) was used as lipid substrate. PIP2diC8 or PI lyophilized powder was dissolved in milliQ water to a concentration of 1 mM just before use. 10 mM stock compounds in DMSO were serially diluted 1:3 to generate a 10-point curve and plated using an acoustic liquid handler system (Echo 550 series instrument, Labcyte). A 10× intermediate compound plate (200 uM starting compound concentration and 10% DMSO) was prepared before starting the reaction. A typical reaction mixture (50 uL) comprised 40 mM HEPES buffer, pH 7.4, 25 mM MgCl2, 0.01% v/v triton-X-100, 1% v/v DMSO, 20 mM NaCl, 1-5 nM WT or H1047R PI3K protein, 20 uM ATP, and 50 uM PIP2diC8 or Soy PI. 1% DMSO buffer alone without test compound was employed as MAX control (full activity in the absence of any inhibitor), and no enzyme control was used to determine the level of background Adenosine 5′-diphosphate (ADP) (MIN control). First, Wild-type (WT) and H1047R mutant protein in kinase buffer with all components except ATP were incubated with or without compound at 27° C. for 1 h. After the pre-incubation, the reaction was initiated by the addition of […] (20 uM final concentration). The reaction was allowed to proceed until about 10% conversion of ATP (2 uM ADP) at 27° C. After that time, 5 uL of reaction was mixed with 5 uL of ADP-Kinase Glo Reagent (ADP-Glo Kinase assay kit, Promega cat. no. V9102) supplemented with MgCl2 10 mM to stop the reaction and deplete the remaining ATP for 40 min at room temperature. Then, 10 uL of Kinase Detection Reagent (ADP-Glo Kinase assay kit, Promega cat. no. V9102) was added to simultaneously convert ADP to ATP and allow the newly synthesized ATP to be measured using a luciferase/luciferin reaction. After 30 min at room temperature the light generated was measured using a luminometer (EnVision plate reader, Perkin Elmer). Process data through Genedata-Screener tool. Relative IC50 values are determined using luminescence units by calculating percent inhibition with respect to on-plate “MIN” and “MAX” controls. Data was analyzed using a 4-parameter nonlinear logistic equation (four-parameter logistic concentration-response curve):
(§3) Y=bot+[(top−bot)/1+(x/IC50)slope]
(§4) where Y=% inhibition, X=concentration yielding y % inhibition, Bottom=minimum value of y attained by curve, Top=maximum value of y attained by curve and Slope=steepness of curve at IC50.
(§5) % Inh=[(median Max−x/median Max−median Min)]·100
(§6) IC50: concentration of compound that reduces a given response (ligand binding, enzyme response) by 50%. IC50 relative: concentration giving half the compound's maximum response.
(§7) For IC50 values shown in Table A, “A” means IC50<0.5 μM; “B” means IC50 ranging between 0.5 μM and 1.0 μM; “C” means IC50 ranging between 1 μM and 5 μM; “D” means IC50 ranging between 5 μM and 10 μM; “E” means IC50>10 μM.

[2] = biological target: T2, human full length PIK3KA Wild-type (p110α/p85α complex) (Homo sapiens, UniProt P42336); test: PI3K-Alpha Kinase (PIK3CA) biochemical activity, wild-type (ADP-Glo); details: Soy PI lipid substrate, 20 uM ATP
T2 construct: Recombinant, catalytically active human full length PIK3KA Wild-type and H1047R mutant were purchased; 6xHis (N); purchased EMD Millipore Sigma 14-602M
Description: as §1, §2, §3, §4, §5, §6, §7

SMILES | IC50 [1] [µM] | IC50 [2] [µM]
Cc1cc(C(C)Nc2ccccc2C(=O)O)c2oc(-c3cnn(-c4ccc(OC(F)(F)F)cc4)c3)cc(=O)c2c1 (single isomer, unassigned) [Example 93, 2-[1-[6-Methyl-4-oxo-2-[1-[4-(trifluoromethoxy)phenyl]pyrazol-4-yl]chromen-8-yl]ethylamino]benzoic acid, Isomer 2,2,2,2-trifluoroacetic acid] | 0.5 to 1 | > 10
Cc1cc(C(C)Nc2ccc(F)c(F)c2C(=O)O)c2oc(-c3cnn(-c4ccc(C#N)cc4)c3)cc(=O)c2c1 (single isomer, unassigned) [Example 95, 2,3-Difluoro-6-[1-[2-[1-(4-cyanophenyl)pyrazol-4-yl]-6-methyl-4-oxo-chromen-8-yl]ethylamino]benzoic acid, Isomer 1,2,2,2-trifluoroacetic acid] | 1 to 5 | > 10
Cc1cc(C(C)Nc2ccccc2C(=O)O)c2oc(-c3cnc(C#CC(C)(C)O)nc3)cc(=O)c2c1 (single isomer, unassigned) [Example 102, 2-[1-[2-[2-(3-Hydroxy-3-methyl-but-1-ynyl)pyrimidin-5-yl]-6-methyl-4-oxo-chromen-8-yl]ethylamino]benzoic acid, Isomer 2,2,2,2-trifluoroacetic acid] | 0.5 to 1 | 5 to 10
Cc1cc(C(C)Nc2ccccc2C(=O)O)c2oc(-c3cnn(-c4ccc(C#N)cc4F)c3)cc(=O)c2c1 (single isomer, unassigned) [Example 104, 2-[1-[2-[1-(4-Cyano-2-fluoro-phenyl)pyrazol-4-yl]-6-methyl-4-oxo-chromen-8-yl]ethylamino]benzoic acid, Isomer 2,2,2,2-trifluoroacetic acid] | 0.5 to 1 | > 10
COc1ncc(-n2cc(-c3cc(=O)c4cc(C)cc(C(C)Nc5ccccc5C(=O)O)c4o3)cn2)cn1 (single isomer, unassigned) [Example 105, 2-[1-[2-[1-(2-Methoxypyrimidin-5-yl)pyrazol-4-yl]-6-methyl-4-oxo-chromen-8-yl]ethylamino]benzoic acid, Isomer 2,2,2,2-trifluoroacetic acid] | 0.5 to 1 | > 10
Cc1cc(C(C)Nc2ccccc2C(=O)O)c2oc(-c3cnn(-c4ccccc4C#N)c3)cc(=O)c2c1 (single isomer, unassigned) [Example 107] | < 0.5 | > 10

Further lines, results first:

IC50 [1] [µM] | IC50 [2] [µM] | SMILES
< 0.5 | 5 to 10 | COc1ccc(-n2cc(-c3cc(=O)c4cc(C)cc(C(C)Nc5ccccc5C(=O)O)c4o3)cn2)cc1F (single isomer, unassigned) [Example 92, 2-[1-[2-[1-(3-Fluoro-4-methoxy-phenyl)pyrazol-4-yl]-6-methyl-4-oxo-chromen-8-yl]ethylamino]benzoic acid, Isomer 2,2,2,2-trifluoroacetic acid]
< 0.5 | 1 to 5 | COc1cc(-n2cc(-c3cc(=O)c4cc(C)cc(C(C)Nc5ccccc5C(=O)O)c4o3)cn2)ccc1C#N (single isomer, unassigned) [Example 94, 2-[1-[2-[1-(4-Cyano-3-methoxy-phenyl)pyrazol-4-yl]-6-methyl-4-oxo-chromen-8-yl]ethylamino]benzoic acid, Isomer 2,2,2,2-trifluoroacetic acid]
< 0.5 | 5 to 10 | Cc1cc(C(C)Nc2ccccc2C(=O)O)c2oc(-c3cn(-c4ccc(C#N)cc4)cn3)cc(=O)c2c1 (single isomer, unassigned) [Example 103, 2-[1-[2-[1-(4-Cyanophenyl)imidazol-4-yl]-6-methyl-4-oxo-chromen-8-yl]ethylamino]benzoic acid, Isomer 2,2,2,2-trifluoroacetic acid]
< 0.5 | 1 to 5 | Cc1cc(C(C)Nc2ccccc2C(=O)O)c2oc(-c3cnn(-c4ccc(Cl)cc4)c3)cc(=O)c2c1 (single isomer, unassigned) [Example 106, 2-[1-2-[1-(4-Chiorophenyl)pyrazol-4-yl]-6-methyl-4-oxo-chromen-8-yl]ethylamino]benzoic acid, Isomer 2,2,2,2-trifluoroacetic acid]
